Like-named read-outs stand apart in the source and are kept apart here.

The subject of data set [1] is blood vessels per area formed in the hydrogel. In words: Mouse angiogenesis model, subcutaneous hydrogel implants. The format is in vivo, mice. The following applies: GM6001 intraperitoneally 0.1 mg/g once daily for two weeks. An excerpt:
PEGDA:GSH hydrogel is loaded with one or more GST-polypeptide fusions having a cleavage site for matrix metalloprotease-9 between GST and the polypeptide. Matrix metalloprotease-9 (MMP-9) recognizes the cleavage site having the amino acid sequence […] (SEQ ID NO:5). The loaded hydrogel is implanted in a mouse angiogenesis model to assess the bioactivity of the released polypeptides. Particularly, the polypeptides eGFP (i.e., Green Fluorescent Protein), mCherry (Red Fluorescent Protein), and a cell lytic polypeptide having the amino acid sequence […] (SEQ ID NO:3) are examined in this angiogenesis model.
Specifically, mice are administered an intraperitoneal injection of ketamine and xylazine (100 mg/kg and 5 mg/kg, respectively), and an injection site is rubbed with 75% ethanol. Anesthesia is indicated by a toe pinch reflex test. All instruments are autoclaved prior to use and standard aseptic technique is followed for the procedure as detailed below. […]
After 14 days, the inserted hydrogels are removed for whole mount immunostaining to determine the number of blood vessels per area formed in the hydrogel. […] Particularly, after one-hour of blocking, the hydrogel is incubated with anti-CD31 antibody overnight at 4 degrees Celsius to allow for fluorescence imaging of the endothelium formed about and/or within the hydrogel. […]

Data set [2] deals with glutathione s-transferase. The following applies: read-out: dissociation constant of glutathione from glutathione s-transferase; cited from earlier work.
For data set [3], the system named is U-87 MG cells. In words: Tumor cell growth inhibition (MTS assay). The format is cell-based. The note with it: 10 μM protein (thrombin 2 U), fusion without thrombin. How it is done: Tumor Cell Growth Inhibition. All proteins were incubated with thrombin at 37° C. for two hours prior to cellular assays. Malignant glioma cells, U-87 MG, (ATCC, Manassas, Va., 3,000 cells/cm^2) were seeded in a 96 well plate together with appropriate treatments in 100 μL DMEM and 10% FCS (Sigma-Aldrich, St. Louis, Mo.). Treatments included a cell only control (untreated), thrombin (2 U), GST (10 μM), GST-6xHis-melittin (10 μM), GST-6xHis-melittin (10 μM) simultaneously with thrombin (2 U), or synthetic melittin (10 μM; GenScript RP20415, Sigma-Aldrich, St. Louis, Mo.). The cells with their respective treatments were incubated at 37° C. in 5% CO2 overnight, approximately 16 hours. The MTS assay (Promega, Madison, Wis., CellTitre96) was performed according to the manufacturer recommendation and incubated for two hours before reading absorbance at 495 nm on a Labsystems Multiskan plus plate reader (Thermo Scientific, Hanover Park, Ill.).

Data set [4] deals with S. pyogenes. Kind of data set: Bacterial growth inhibition by free proteins (A600). In kind it is cell-based. The note with it: 10 μM, at 5 hours. How it is done: Bacterial Growth Inhibition. Following digestion with thrombin as described above, GSH-agarose beads (GoldBio, St. Louis, Mo.) were used to separate GST from recombinant melittin. Synthetic melittin and GST-6xHis-melittin underwent a similar process without thrombin or being subjected to GSH-agarose treatment. Overnight cultures of S. pyogenes (ATCC, Manassas, Va., BAA-1633) cells were diluted in chemically defined medium were diluted to approximately 10^8 colony forming units (CFUs), corresponding to an absorbance at 600 nm (A600) of 0.1, and 150 μL distributed into 96-well, optical-bottom plates (Greiner BioOne, Frickenhausen, Germany) for treatment. GST-6xHis-melittin, recombinant melittin, or synthetic melittin (10 μM) were then added and the plate was incubated at 37° C. with shaking using a Biotek Synergy 2 plate reader (Winooski, Vt.). Absorbance (A600) measurements were obtained every ten minutes for 12 hours.

Data set [5] deals with thrombin. Kind of data set: Kinetics of thrombin cleavage of GST-GFP (SDS-PAGE densitometry). The following applies: for Km: read-out: Michaelis-Menten constant (Km) of thrombin to GST-GFP. The format is biochemical. How it is done: Reaction kinetics were measured by semi-quantitative densitometry of SDS-PAGE gels. Reactions with equivalent concentrations of GST-GFP substrate and varying concentrations of thrombin (0.1, 0.33, 0.75, 1.5, and 3 μM) were incubated at 37° C. for varying amounts of time. In groups where cleavage from microspheres was reported, approximately 10,000 microspheres were used. Reactions were stopped by addition of Laemmli sample buffer (containing SDS) and stored at 4° C. until run on SDS-PAGE. All gels were run with known concentrations of BSA standards. Density measurements were made with NIH imageJ software with gel backgrounds normalized. Each thrombin concentration was run one time, except for […], which was ran in biological triplicate.

The conditions of data set [6]: below 1 mM GSH, after 6 days. How it is done:
Protein Release. GSH mediated release studies were carried out over 6 days. Protein release was measured from 10,000 to 20,000 microspheres into 500 μL PBS in the presence and absence of glutathione. Release was measured with three independent replicates per experimental group. […] Therefore, at each 24-hour time point, glutathione containing buffers were completely replaced. The buffer that was removed was frozen for later analysis. At the completion of the experiment, all frozen samples were thawed and 50 μL of each samples were diluted in PBS and read on a Quantech fluorometer.

For `CNC(=O)[C@H](Cc1c[nH]c2ccccc12)NC(=O)[C@@H](CC(=O)NO)CC(C)C` [GM6001], the “vessel growth in the hydrogel” value in data set [1] is listed as “limited vessel growth”.

Regarding `N[C@@H](CCC(=O)N[C@@H](CS)C(=O)NCC(=O)O)C(=O)O` [glutathione], the Kd in data set [2] was 22 µM.

Take `CC[C@H](C)[C@H](NC(=O)CN)C(=O)NCC(=O)N[C@@H](C)C(=O)N[C@H](C(=O)N[C@@H](CC(C)C)C(=O)N[C@@H](CCCCN)C(=O)N[C@H](C(=O)N[C@@H](CC(C)C)C(=O)N[C@H](C(=O)N[C@H](C(=O)NCC(=O)N[C@@H](CC(C)C)C(=O)N1CCC[C@H]1C(=O)N[C@@H](C)C(=O)N[C@@H](CC(C)C)C(=O)N[C@H](C(=O)N[C@@H](CO)C(=O)N[C@@H](Cc1c[nH]c2ccccc12)C(=O)N[C@H](C(=O)N[C@@H](CCCCN)C(=O)N[C@@H](CCCNC(=N)N)C(=O)N[C@@H](CCCCN)C(=O)N[C@@H](CCCNC(=N)N)C(=O)N[C@@H](CCC(N)=O)C(=O)N[C@@H](CCC(N)=O)C(N)=O)[C@@H](C)CC)[C@@H](C)CC)[C@@H](C)O)[C@@H](C)O)C(C)C)C(C)C` [synthetic melittin, melittin, reference compound]: in data set [3], the “survival of U-87 MG cells” value was found to be 15%. In addition, the “growth of S. pyogenes” value in data set [4] is “almost completely inhibited the growth”.

On to GST-GFP, for which, in data set [5], the “apparent Vmax of thrombin mediated release” value stood at 0.13 µg/min. Moreover, the Michaelis-Menten constant (Km) in data set [5] (GST-GFP in association with PEGDA-GSH microspheres) is around 0.3 µM; in data set [5] (free GST-GFP) it was around 0.18 µM. Besides, the “protein remaining associated with the particles” value in data set [6] is given as “more than 80%”.

For the compound “recombinant melittin: melittin cleaved by thrombin from purified recombinant GST-6xHis-melittin”, the “growth of S. pyogenes” value in data set [4] is “almost completely inhibited the growth”.

One may read the Km as the substrate concentration at which the rate is half of its maximum.

The record behind these values is patent publication US9457101B2, “Hydrogels for delivery of therapeutic polypeptides” (priority 2012, dated 2016).
